Test results reported in ChEMBL document CHEMBL1147757, “Design and preparation of 2-benzamido-pyrimidines as inhibitors of IKK” (Bioorg Med Chem Lett, 2006).

Columns and labels:
[1] = target: T1, Inhibitor of NF-kappa-B kinase (IKK) (Homo sapiens, UniProt O14920+O15111+Q9Y6K9); assay: Inhibitory activity against IKK complex isolated from HeLa cells; assay type: cell-based
[2] = target: T2, Inhibitor of nuclear factor kappa-B kinase subunit alpha (Homo sapiens, UniProt O15111); assay: Inhibitory activity against IKK1
T2 sequence (O15111 whole entry): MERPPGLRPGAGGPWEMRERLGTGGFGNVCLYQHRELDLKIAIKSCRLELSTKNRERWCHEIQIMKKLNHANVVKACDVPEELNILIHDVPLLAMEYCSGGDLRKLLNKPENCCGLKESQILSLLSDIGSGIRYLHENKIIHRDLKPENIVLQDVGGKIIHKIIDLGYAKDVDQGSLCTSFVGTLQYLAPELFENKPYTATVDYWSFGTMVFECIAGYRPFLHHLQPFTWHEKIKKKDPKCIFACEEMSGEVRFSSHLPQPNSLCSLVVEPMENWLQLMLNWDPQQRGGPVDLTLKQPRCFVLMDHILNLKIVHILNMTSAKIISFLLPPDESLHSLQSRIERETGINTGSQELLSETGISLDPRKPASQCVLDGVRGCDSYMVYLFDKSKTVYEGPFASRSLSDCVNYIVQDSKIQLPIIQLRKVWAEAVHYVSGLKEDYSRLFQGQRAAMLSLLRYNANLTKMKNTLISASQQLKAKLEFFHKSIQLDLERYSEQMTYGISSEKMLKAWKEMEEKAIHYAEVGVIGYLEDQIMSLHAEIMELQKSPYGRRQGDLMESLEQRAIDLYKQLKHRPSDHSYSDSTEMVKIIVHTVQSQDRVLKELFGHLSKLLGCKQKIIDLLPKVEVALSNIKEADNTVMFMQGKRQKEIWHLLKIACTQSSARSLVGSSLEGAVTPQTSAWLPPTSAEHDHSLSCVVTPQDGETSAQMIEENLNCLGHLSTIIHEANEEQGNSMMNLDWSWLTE

[3] = target: T3, Inhibitor of nuclear factor kappa-B kinase subunit beta (Homo sapiens, UniProt O14920); assay: Inhibitory activity against IKK2
T3 sequence (O14920 whole entry): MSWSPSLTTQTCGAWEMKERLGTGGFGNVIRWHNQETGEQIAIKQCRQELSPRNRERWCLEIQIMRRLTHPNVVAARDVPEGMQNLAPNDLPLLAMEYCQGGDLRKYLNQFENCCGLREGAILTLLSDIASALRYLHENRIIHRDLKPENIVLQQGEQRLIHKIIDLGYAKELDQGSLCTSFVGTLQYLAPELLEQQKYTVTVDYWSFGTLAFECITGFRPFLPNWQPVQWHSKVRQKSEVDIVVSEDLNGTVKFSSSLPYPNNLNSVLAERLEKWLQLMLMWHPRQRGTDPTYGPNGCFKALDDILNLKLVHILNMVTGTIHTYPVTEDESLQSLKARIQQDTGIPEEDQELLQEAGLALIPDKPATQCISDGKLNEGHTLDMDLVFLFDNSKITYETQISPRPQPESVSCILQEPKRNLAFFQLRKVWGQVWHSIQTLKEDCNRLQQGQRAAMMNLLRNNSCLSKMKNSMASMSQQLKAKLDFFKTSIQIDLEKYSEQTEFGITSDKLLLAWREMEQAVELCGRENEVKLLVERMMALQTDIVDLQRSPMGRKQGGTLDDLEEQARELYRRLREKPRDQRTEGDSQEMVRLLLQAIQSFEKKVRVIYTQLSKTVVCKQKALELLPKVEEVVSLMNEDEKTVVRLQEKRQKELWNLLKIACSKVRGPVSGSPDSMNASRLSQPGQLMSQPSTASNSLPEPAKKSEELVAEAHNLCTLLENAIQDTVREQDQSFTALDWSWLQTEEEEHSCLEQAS

[4] = target: T1, Inhibitor of NF-kappa-B kinase (IKK); assay: Inhibition of TNF-alpha-stimulated expression of ICAM1 in HUVEC cells; assay type: functional, cell-based
[5] = target: T1, Inhibitor of NF-kappa-B kinase (IKK); assay: Inhibition of TNF-alpha-stimulated expression of VCAM1 in HUVEC cells; assay type: functional, cell-based
[6] = Inhibition of IFN-gamma-stimulated expression of HLA-DR; assay type: functional
[7] = Inhibition of IFN-gamma-stimulated expression of beta-2 microglobulin; assay type: functional
[8] = target: T1, Inhibitor of NF-kappa-B kinase (IKK); assay: Inhibition of TNF-alpha-stimulated IkappaBalpha degradation; assay type: functional
[9] = target: T1, Inhibitor of NF-kappa-B kinase (IKK); assay: Inhibition of TNF-alpha-stimulated expression of E-selectin in HUVEC cells; assay type: functional, cell-based
Rattus norvegicus [10] = assay: Inhibition of LPS-induced TNFalpha release into plasma in rat at 30 mg/kg, sc; assay type: functional; details: route subcutaneous
Mus musculus = assay: Inhibition of thioglycollate-induced polymorphonuclear neutrophil release in mouse peritoneum at 10 mg/kg, sc; assay type: functional; details: route subcutaneous
[11] = target: T1, Inhibitor of NF-kappa-B kinase (IKK); assay: Inhibition of LPS-induced TNFalpha release from human PBMC; assay type: functional
Rattus norvegicus [12] = assay: Inhibition of LPS-induced TNFalpha release into plasma in rat at 30 mg/kg, po; assay type: functional

T1 sequence (Q9Y6K9 whole entry, one chain of several): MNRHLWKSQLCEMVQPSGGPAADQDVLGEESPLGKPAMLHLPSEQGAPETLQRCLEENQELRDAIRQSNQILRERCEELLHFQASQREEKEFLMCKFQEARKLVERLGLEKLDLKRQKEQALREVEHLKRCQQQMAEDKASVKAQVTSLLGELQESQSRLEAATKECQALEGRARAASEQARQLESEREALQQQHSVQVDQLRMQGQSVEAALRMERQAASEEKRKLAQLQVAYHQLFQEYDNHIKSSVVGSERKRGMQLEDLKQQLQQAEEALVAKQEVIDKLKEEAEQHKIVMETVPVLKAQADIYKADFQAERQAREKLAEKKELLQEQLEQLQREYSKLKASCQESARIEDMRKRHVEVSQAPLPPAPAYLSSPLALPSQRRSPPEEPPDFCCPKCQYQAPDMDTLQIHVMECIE

Structure (SMILES) | IC50 [1] | IC50 [2] | IC50 [3] | IC50 [4] | IC50 [5] | IC50 [6] | IC50 [7] | IC50 [8] | IC50 [9] | IC50 [11] | inhibition in vivo at 30 mg/kg (Rattus norvegicus [10]) | inhibition in vivo at 10 mg/kg (Mus musculus) | inhibition in vivo at 30 mg/kg (Rattus norvegicus [12])
CC(C)(N)CCc1ccc(-c2ccnc(Nc3ccc(C(=O)N4CCC(N5CCCC5)CC4)cc3)n2)s1 | 40 nM | 30 nM | 40 nM |  |  |  |  |  |  |  |  |  | 
O=C(O)c1ccc(Nc2nccc(-c3cc4ccccc4s3)n2)cc1 | 18000 nM | 5000 nM | 600 nM | 50000 nM | 50000 nM | 100000 nM | 100000 nM | 100000 nM | 50000 nM |  |  |  | 
CC(C)(O)CCc1ccc(-c2ccnc(Nc3ccc(C(=O)N4CCC(N5CCCC5)CC4)cc3)n2)s1 | 50 nM | 700 nM | 50 nM | 500 nM | 600 nM | 3000 nM | 5000 nM | 2000 nM | 450 nM |  |  |  | 
CN(C)CCNC(=O)c1ccc(Nc2nccc(-c3cc4ccccc4s3)n2)cc1 | 300 nM | 1200 nM | 200 nM | 500 nM | 500 nM |  | 2000 nM | 5000 nM | 500 nM |  |  |  | 
O=C(c1ccc(Nc2nccc(-c3ccc(CCCCO)s3)n2)cc1)N1CCC(N2CCCC2)CC1 | 40 nM | 500 nM | 25 nM | 200 nM | 200 nM | 2500 nM | 5000 nM | 2000 nM | 200 nM |  |  |  | 
CC(=O)NC(C)(C)CCc1ccc(-c2ccnc(Nc3ccc(C(=O)N4CCC(N5CCCC5)CC4)cc3)n2)s1 | 800 nM | 30000 nM | 150 nM |  |  |  |  |  |  |  |  |  | 
O=C(c1ccc(Nc2nccc(-c3cc4ccccc4s3)n2)cc1Cl)N1CCC(N2CCCC2)CC1 | 250 nM | 400 nM | 90 nM |  |  |  |  |  |  |  |  |  | 
O=C(O)c1ccccc1Nc1nccc(-c2cc3ccccc3s2)n1 | > 100000 nM | > 100000 nM | > 100000 nM |  |  |  |  |  |  |  |  |  | 
COc1cc(Nc2nccc(-c3cc4ccccc4s3)n2)ccc1C(=O)N1CCC(N2CCCC2)CC1 | 150 nM | 100 nM | 50 nM |  |  |  |  |  |  |  |  |  | 
CC(C)CCNC(=O)c1ccc(Nc2nccc(-c3cc4ccccc4s3)n2)cc1 |  |  | > 100000 nM |  |  |  |  |  |  |  |  |  | 

More lines, main results first:

IC50 [1] | IC50 [2] | IC50 [3] | IC50 [4] | IC50 [5] | IC50 [6] | IC50 [7] | IC50 [8] | IC50 [9] | IC50 [11] | Structure (SMILES) | inhibition in vivo at 30 mg/kg (Rattus norvegicus [10]) | inhibition in vivo at 10 mg/kg (Mus musculus) | inhibition in vivo at 30 mg/kg (Rattus norvegicus [12])
 |  | 2200 nM |  |  |  |  |  |  |  | O=C(O)Cc1ccc(Nc2nccc(-c3cc4ccccc4s3)n2)cc1 |  |  | 
8500 nM | 3800 nM | 900 nM | 2000 nM | 2000 nM | 250 nM | 10000 nM | 20000 nM | 2000 nM |  | O=C(c1ccc(Nc2nccc(-c3cc4ccccc4s3)n2)cc1)N1CCCC1 |  |  | 
4400 nM | 3700 nM | 600 nM |  |  |  |  |  |  |  | NCCNC(=O)c1ccc(Nc2nccc(-c3cc4ccccc4s3)n2)cc1 |  |  | 
80 nM | 150 nM | 40 nM | 400 nM | 400 nM | 2000 nM | 2000 nM | 2000 nM | 300 nM |  | CN(C)C1CCN(C(=O)c2ccc(Nc3nccc(-c4cc5ccccc5s4)n3)cc2)CC1 |  |  | 
70 nM | 200 nM | 40 nM | 300 nM | 300 nM | 2000 nM | 2000 nM | 1000 nM | 500 nM | 300 nM | O=C(c1ccc(Nc2nccc(-c3cc4ccccc4s3)n2)cc1)N1CCC(N2CCCC2)CC1 | 86% | 50% | 75%
30 nM | 30 nM | 60 nM |  |  |  |  |  |  |  | CCC(N)(CC)CCc1ccc(-c2ccnc(Nc3ccc(C(=O)N4CCC(N5CCCC5)CC4)cc3)n2)s1 |  |  | 
100 nM | 1000 nM | 100 nM | 600 nM | 500 nM | 2000 nM | 5000 nM | 1000 nM | 400 nM |  | COCCCc1ccc(-c2ccnc(Nc3ccc(C(=O)N4CCC(N5CCCC5)CC4)cc3)n2)s1 |  |  | 
 |  | 1000 nM |  |  |  |  |  |  |  | O=C(O)c1cccc(Nc2nccc(-c3cc4ccccc4s3)n2)c1 |  |  | 
200 nM | 500 nM | 150 nM |  |  |  |  |  |  |  | CC(C)(N)C#Cc1ccc(-c2ccnc(Nc3ccc(C(=O)N4CCC(N5CCCC5)CC4)cc3)n2)s1 |  |  | 
500 nM | 1200 nM | 400 nM |  |  |  |  |  |  |  | O=C(NCCN1CCCC1)c1ccc(Nc2nccc(-c3cc4ccccc4s3)n2)cc1 |  |  | 
